According to patent publication US12227500B2, “Substituted pyrrolo[2,3-b]pyridines for suppressing toxic endoplasmic reticulum stress” (THE TRUSTEES OF COLUMBIA UNIVERSITY IN THE CITY OF NEW YORK, priority 2018, dated 2025):
Like-named read-outs stand apart in the source and are kept apart here.

What was measured:
Test in all cases: Radiolabeled ATP kinase assay, panel of 371 kinases (Table S6)
Format in all cases: biochemical
[1] = molecular target: T1, panel of 371 human kinases (Homo sapiens, UniProt Q16566); conditions: CAMK4; 0.1 μM; 10 μM ATP; read-out: % Enzyme Activity (relative to DMSO controls)
T1 construct: purchased Reaction Biology Corp
Description: (§1) ; FIG. 38C). […]. Further targeted analyses, such as genetic knock-down or knock-out, may be warranted to parse the role of these additional kinases in our model of neurodegeneration.

[2] = molecular target: T2, panel of 371 human kinases (Homo sapiens, UniProt P29323); conditions: EPHB2; 0.1 μM; 10 μM ATP; read-out: % Enzyme Activity (relative to DMSO controls)
T2 construct: purchased Reaction Biology Corp
Description: as §1

[3] = molecular target: T3, panel of 371 human kinases (Homo sapiens, UniProt Q96S53); conditions: TESK2; 0.1 μM; 10 μM ATP; read-out: % Enzyme Activity (relative to DMSO controls)
T3 construct: purchased Reaction Biology Corp
Description: as §1

[4] = molecular target: T4, panel of 371 human kinases (Homo sapiens, UniProt P42684); conditions: ABL2/ARG; 0.1 μM; 10 μM ATP; read-out: % Enzyme Activity (relative to DMSO controls)
T4 construct: purchased Reaction Biology Corp
Description: as §1

[5] = molecular target: T5, panel of 371 human kinases (Homo sapiens, UniProt P50750); conditions: 0.1 μM, 10 μM ATP, read-out: % Enzyme Activity (relative to DMSO controls)
T5 construct: purchased Reaction Biology Corp
Description: as §1

[6] = molecular target: T6, panel of 371 human kinases (Homo sapiens, UniProt O14920); conditions: IKKb/IKBKE; 0.1 μM; 10 μM ATP; read-out: % Enzyme Activity (relative to DMSO controls)
T6 construct: purchased Reaction Biology Corp
Description: as §1

[7] = molecular target: T7, panel of 371 human kinases (Homo sapiens, UniProt P28482); conditions: ERK2/MAPK1; 0.1 μM; 10 μM ATP; read-out: % Enzyme Activity (relative to DMSO controls)
T7 construct: purchased Reaction Biology Corp
Description: as §1

[8] = molecular target: T8, panel of 371 human kinases (Homo sapiens, UniProt P50613); conditions: CDK7/cyclin H; 0.1 μM; 10 μM ATP; read-out: % Enzyme Activity (relative to DMSO controls)
T8 construct: purchased Reaction Biology Corp
Description: as §1

[9] = molecular target: T9, panel of 371 human kinases (Homo sapiens, UniProt Q8NG66); conditions: NEK11; 0.1 μM; 10 μM ATP; read-out: % Enzyme Activity (relative to DMSO controls)
T9 construct: purchased Reaction Biology Corp
Description: as §1

[10] = molecular target: T10, panel of 371 human kinases (Homo sapiens, UniProt Q9H0K1); conditions: SIK2; 0.1 μM; 10 μM ATP; read-out: % Enzyme Activity (relative to DMSO controls)
T10 construct: purchased Reaction Biology Corp
Description: as §1

[11] = molecular target: T11, panel of 371 human kinases (Homo sapiens, UniProt Q9Y6E0); conditions: MST3/STK24; 0.1 μM; 10 μM ATP; read-out: % Enzyme Activity (relative to DMSO controls)
T11 construct: purchased Reaction Biology Corp
Description: as §1

[12] = molecular target: T12, panel of 371 human kinases (Homo sapiens, UniProt O43781); conditions: DYRK3; 0.1 μM; 10 μM ATP; read-out: % Enzyme Activity (relative to DMSO controls)
T12 construct: purchased Reaction Biology Corp
Description: as §1

[13] = molecular target: T13, panel of 371 human kinases (Homo sapiens, UniProt Q9UKI8); conditions: TLK1; 0.1 μM; 10 μM ATP; read-out: % Enzyme Activity (relative to DMSO controls)
T13 construct: purchased Reaction Biology Corp
Description: as §1

[14] = molecular target: T14, panel of 371 human kinases (Homo sapiens, UniProt Q16584); conditions: for remaining activity at 0.1 µM: MLK3/MAP3K11, 10 μM ATP, read-out: % Enzyme Activity (relative to DMSO controls)
T14 construct: purchased Reaction Biology Corp
Description: as §1

[15] = molecular target: T15, panel of 371 human kinases (Homo sapiens, UniProt Q5VT25); conditions: MRCKa/CDC42BPA; 0.1 μM; 10 μM ATP; read-out: % Enzyme Activity (relative to DMSO controls)
T15 construct: purchased Reaction Biology Corp
Description: as §1

[16] = molecular target: T16, panel of 371 human kinases (Homo sapiens, UniProt P45983); conditions: JNK1; 0.1 μM; 10 μM ATP; read-out: % Enzyme Activity (relative to DMSO controls)
T16 construct: purchased Reaction Biology Corp
Description: as §1

[17] = molecular target: T17, panel of 371 human kinases (Homo sapiens, UniProt Q6VAB6); conditions: KSR2; 0.1 μM; 10 μM ATP; read-out: % Enzyme Activity (relative to DMSO controls)
T17 construct: purchased Reaction Biology Corp
Description: as §1

[18] = molecular target: T18, panel of 371 human kinases (Homo sapiens, UniProt Q8NEV4); conditions: MYO3A; 0.1 μM; 10 μM ATP; read-out: % Enzyme Activity (relative to DMSO controls)
T18 construct: purchased Reaction Biology Corp
Description: as §1

[19] = molecular target: T19, panel of 371 human kinases (Homo sapiens, UniProt P51956); conditions: NEK3; 0.1 μM; 10 μM ATP; read-out: % Enzyme Activity (relative to DMSO controls)
T19 construct: purchased Reaction Biology Corp
Description: as §1

[20] = molecular target: T20, panel of 371 human kinases (Homo sapiens, UniProt Q8IW41); conditions: MAPKAPK5/PRAK; 0.1 μM; 10 μM ATP; read-out: % Enzyme Activity (relative to DMSO controls)
T20 construct: purchased Reaction Biology Corp
Description: as §1

[21] = molecular target: T21, panel of 371 human kinases (Homo sapiens, UniProt Q9Y463); conditions: DYRK1B; 0.1 μM; 10 μM ATP; read-out: % Enzyme Activity (relative to DMSO controls)
T21 construct: purchased Reaction Biology Corp
Description: as §1

[22] = molecular target: T22, panel of 371 human kinases (Homo sapiens, UniProt O15111); conditions: IKKa/CHUK; 0.1 μM; 10 μM ATP; read-out: % Enzyme Activity (relative to DMSO controls)
T22 construct: purchased Reaction Biology Corp
Description: as §1

[23] = molecular target: T23, panel of 371 human kinases (Homo sapiens, UniProt P31749); conditions: AKT1; 0.1 μM; 10 μM ATP; read-out: % Enzyme Activity (relative to DMSO controls)
T23 construct: purchased Reaction Biology Corp
Description: as §1

[24] = molecular target: T24, panel of 371 human kinases (Homo sapiens, UniProt P46734); conditions: MEK3; 0.1 μM; 10 μM ATP; read-out: % Enzyme Activity (relative to DMSO controls)
T24 construct: purchased Reaction Biology Corp
Description: as §1

T5 sequence (P50750 whole entry): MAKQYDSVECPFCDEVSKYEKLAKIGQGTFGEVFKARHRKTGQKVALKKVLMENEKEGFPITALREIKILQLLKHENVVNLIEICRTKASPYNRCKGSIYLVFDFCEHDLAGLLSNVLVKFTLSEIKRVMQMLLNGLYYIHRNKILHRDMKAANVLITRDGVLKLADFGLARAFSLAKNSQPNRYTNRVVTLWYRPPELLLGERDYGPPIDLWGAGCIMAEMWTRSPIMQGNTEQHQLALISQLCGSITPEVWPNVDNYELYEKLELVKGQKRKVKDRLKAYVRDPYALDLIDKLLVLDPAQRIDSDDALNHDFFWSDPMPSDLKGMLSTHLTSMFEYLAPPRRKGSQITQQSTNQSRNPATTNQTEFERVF
T14 sequence (Q16584 whole entry): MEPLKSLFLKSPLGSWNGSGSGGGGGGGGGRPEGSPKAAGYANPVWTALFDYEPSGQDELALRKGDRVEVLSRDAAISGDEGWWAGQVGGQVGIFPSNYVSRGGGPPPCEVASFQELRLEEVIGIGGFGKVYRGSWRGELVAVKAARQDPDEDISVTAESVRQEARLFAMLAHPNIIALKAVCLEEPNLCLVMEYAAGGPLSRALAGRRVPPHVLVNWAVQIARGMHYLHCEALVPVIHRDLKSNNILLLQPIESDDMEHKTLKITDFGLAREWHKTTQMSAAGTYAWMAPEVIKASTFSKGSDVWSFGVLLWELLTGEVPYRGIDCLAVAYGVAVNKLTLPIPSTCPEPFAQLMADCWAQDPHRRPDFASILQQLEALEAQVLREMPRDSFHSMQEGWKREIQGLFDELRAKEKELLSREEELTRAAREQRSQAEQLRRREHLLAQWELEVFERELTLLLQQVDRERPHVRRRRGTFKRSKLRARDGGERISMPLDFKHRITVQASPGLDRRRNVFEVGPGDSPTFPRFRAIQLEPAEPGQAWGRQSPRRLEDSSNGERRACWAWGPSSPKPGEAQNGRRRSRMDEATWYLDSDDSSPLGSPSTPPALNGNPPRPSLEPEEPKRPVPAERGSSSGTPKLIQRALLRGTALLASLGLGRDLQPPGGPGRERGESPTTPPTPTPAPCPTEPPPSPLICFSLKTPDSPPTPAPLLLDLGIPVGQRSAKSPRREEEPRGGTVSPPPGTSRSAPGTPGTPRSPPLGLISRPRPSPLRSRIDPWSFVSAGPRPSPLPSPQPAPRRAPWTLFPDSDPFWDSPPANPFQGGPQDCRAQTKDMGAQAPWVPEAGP
T7 sequence (P28482 whole entry): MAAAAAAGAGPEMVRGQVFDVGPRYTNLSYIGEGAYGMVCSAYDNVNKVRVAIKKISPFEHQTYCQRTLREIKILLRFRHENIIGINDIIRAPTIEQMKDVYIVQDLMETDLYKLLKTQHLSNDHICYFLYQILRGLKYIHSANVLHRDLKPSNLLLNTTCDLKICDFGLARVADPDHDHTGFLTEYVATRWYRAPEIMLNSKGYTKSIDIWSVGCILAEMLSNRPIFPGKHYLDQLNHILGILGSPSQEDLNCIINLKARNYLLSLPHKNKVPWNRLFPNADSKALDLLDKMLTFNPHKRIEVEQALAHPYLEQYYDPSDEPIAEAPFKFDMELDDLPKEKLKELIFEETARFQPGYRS
T24 sequence (P46734 whole entry): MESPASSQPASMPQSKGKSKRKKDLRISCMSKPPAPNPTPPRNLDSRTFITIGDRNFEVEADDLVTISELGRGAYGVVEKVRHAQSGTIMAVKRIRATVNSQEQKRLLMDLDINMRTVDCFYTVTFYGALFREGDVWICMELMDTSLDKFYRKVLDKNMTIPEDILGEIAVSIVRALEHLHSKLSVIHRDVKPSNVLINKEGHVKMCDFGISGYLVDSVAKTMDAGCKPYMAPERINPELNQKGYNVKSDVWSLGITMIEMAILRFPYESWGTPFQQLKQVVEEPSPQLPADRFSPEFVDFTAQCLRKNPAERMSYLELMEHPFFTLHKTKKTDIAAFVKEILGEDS
T8 sequence (P50613 whole entry): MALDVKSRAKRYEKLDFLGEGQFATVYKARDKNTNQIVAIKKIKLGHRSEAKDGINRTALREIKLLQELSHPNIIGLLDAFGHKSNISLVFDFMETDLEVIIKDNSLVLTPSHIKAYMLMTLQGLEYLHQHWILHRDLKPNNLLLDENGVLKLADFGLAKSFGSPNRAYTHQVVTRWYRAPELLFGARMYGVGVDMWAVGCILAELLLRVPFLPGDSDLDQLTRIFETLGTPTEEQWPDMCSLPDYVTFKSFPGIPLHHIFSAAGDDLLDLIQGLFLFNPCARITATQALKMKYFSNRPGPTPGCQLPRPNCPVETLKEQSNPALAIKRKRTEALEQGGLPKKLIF
T22 sequence (O15111 whole entry): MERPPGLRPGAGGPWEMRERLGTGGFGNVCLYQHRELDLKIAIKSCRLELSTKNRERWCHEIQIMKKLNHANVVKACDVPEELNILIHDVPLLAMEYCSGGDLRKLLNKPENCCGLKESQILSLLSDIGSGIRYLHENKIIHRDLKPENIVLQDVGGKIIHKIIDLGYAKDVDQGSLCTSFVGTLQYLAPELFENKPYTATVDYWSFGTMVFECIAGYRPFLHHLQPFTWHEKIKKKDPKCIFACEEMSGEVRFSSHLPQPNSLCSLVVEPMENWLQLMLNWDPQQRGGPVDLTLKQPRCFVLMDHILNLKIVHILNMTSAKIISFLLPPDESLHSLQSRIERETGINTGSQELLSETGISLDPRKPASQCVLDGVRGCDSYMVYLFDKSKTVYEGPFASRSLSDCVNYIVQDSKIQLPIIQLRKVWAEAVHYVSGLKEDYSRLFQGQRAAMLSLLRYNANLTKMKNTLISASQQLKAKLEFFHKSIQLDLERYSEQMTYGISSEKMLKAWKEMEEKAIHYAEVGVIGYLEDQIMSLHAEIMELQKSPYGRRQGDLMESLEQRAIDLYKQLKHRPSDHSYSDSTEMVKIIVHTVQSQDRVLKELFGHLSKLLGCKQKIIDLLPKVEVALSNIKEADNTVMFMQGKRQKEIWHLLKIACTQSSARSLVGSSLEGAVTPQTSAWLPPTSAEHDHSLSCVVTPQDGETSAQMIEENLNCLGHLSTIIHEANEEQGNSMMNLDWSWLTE
T4 sequence (P42684 whole entry): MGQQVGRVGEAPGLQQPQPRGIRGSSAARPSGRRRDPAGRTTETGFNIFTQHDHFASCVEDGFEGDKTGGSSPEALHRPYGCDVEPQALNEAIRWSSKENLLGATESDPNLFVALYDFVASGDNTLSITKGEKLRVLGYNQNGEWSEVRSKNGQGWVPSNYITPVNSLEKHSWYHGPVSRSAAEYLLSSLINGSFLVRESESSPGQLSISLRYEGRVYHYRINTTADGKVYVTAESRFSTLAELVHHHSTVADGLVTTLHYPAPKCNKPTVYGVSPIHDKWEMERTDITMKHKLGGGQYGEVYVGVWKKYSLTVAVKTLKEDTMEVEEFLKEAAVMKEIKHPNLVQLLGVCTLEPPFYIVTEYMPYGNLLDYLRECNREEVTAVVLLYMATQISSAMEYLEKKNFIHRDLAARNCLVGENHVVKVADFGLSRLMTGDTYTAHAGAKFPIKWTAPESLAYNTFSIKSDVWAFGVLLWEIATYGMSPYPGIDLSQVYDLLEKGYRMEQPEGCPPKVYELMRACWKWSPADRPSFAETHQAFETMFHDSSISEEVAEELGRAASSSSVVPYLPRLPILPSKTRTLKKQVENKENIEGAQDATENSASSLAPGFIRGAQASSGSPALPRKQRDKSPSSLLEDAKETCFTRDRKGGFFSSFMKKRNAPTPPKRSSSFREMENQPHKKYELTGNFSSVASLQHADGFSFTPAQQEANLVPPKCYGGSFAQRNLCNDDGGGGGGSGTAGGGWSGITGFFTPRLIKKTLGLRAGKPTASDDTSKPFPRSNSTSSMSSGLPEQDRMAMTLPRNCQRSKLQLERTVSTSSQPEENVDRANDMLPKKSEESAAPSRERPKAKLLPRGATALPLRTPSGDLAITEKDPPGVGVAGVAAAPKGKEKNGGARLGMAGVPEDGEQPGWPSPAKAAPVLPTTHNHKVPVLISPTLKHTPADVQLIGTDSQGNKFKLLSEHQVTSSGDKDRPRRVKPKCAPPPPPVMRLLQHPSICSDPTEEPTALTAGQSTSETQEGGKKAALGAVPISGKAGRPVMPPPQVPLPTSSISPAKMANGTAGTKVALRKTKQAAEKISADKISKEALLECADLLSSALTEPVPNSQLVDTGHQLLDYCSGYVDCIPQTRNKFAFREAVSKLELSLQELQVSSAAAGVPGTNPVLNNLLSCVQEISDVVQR
T13 sequence (Q9UKI8 whole entry): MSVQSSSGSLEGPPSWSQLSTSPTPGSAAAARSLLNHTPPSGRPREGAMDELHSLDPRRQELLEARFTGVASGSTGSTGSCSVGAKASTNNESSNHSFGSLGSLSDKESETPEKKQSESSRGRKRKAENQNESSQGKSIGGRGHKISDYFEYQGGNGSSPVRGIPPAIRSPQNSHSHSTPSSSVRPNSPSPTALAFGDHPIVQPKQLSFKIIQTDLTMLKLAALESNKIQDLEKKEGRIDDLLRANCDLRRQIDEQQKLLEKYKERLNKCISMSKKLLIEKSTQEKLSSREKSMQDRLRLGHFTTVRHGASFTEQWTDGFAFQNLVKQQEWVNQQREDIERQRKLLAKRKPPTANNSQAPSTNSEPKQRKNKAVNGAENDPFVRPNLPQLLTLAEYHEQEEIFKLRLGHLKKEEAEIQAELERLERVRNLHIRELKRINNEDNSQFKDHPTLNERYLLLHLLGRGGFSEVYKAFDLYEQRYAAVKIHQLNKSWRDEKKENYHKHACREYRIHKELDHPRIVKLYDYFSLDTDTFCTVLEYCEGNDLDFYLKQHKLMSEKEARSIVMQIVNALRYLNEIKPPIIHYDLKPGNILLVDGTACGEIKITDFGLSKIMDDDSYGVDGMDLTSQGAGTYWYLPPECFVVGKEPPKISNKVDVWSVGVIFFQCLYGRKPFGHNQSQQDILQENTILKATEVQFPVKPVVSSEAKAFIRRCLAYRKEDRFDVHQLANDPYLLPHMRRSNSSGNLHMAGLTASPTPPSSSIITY

SMILES | remaining activity at 0.1 µM [1] | remaining activity at 0.1 µM [2] | remaining activity at 0.1 µM [3] | remaining activity at 0.1 µM [4] | remaining activity at 0.1 µM ([5]; CDK9/cyclin K) | remaining activity at 0.1 µM ([5]; CDK9/cyclin T1) | remaining activity at 0.1 µM ([5]; CDK9/cyclin T2) | remaining activity at 0.1 µM [6] | remaining activity at 0.1 µM [7] | remaining activity at 0.1 µM [8] | remaining activity at 0.1 µM [9] | remaining activity at 0.1 µM [10] | remaining activity at 0.1 µM [11] | remaining activity at 0.1 µM [12] | remaining activity at 0.1 µM [13] | remaining activity at 0.1 µM [14] | remaining activity at 0.1 µM [15] | remaining activity at 0.1 µM [16] | remaining activity at 0.1 µM [17] | remaining activity at 0.1 µM [18] | further results
CN1CCN(Cc2ccc(-c3cnc4[nH]cc(-c5ccc6[nH]ccc6c5)c4c3)cc2)CC1 [Compound 1, 3-(1H-Indol-5-yl)-5-(4-((4-methylpiperazin-1-yl)methyl)phenyl)-1H-pyrrolo[2,3-b]pyridine, reference compound] | 95.1% | 88.6% | 112% | 76.8% | 79.8% | 86% | 112% | 81.3% | 104% | 91.4% | 107% | 83.2% | 71.2% | 74.9% | 102% | 56.4% | 105% | 98.2% | 102% | 88.6% | remaining activity at 0.025 µM ([14]; 0.025 μM, read-out: MLK3 activity remaining): 56.4%; remaining activity at 0.1 µM [19]: 88.3%; remaining activity at 0.1 µM [20]: 78.5%; remaining activity at 0.1 µM [21]: 43.2%; remaining activity at 0.1 µM [22]: 96.8%; remaining activity at 0.1 µM [23]: 97%; remaining activity at 0.1 µM [24]: 101%
OCCN1CCN(Cc2ccc(-c3cnc4[nH]cc(-c5cccc(Cl)c5)c4c3)cc2)CC1 [Compound 12k, 2-(4-(4-(3-(3-Chlorophenyl)-1H-pyrrolo[2,3-b]pyridin-5-yl)benzyl)piperazin-1-yl)ethan-1-ol] | 100% | 98.3% | 92.7% | 75.1% | 88.5% | 88.7% | 99.1% | 84.1% | 101% | 89.2% | 101% | 59.8% | 78.4% | 89.2% | 102% | 67% | 96.1% | 86.8% | 106% | 79.1% | remaining activity at 0.1 µM [19]: 91.1%; remaining activity at 0.1 µM [20]: 84.4%; remaining activity at 0.1 µM [21]: 38.3%; remaining activity at 0.1 µM [22]: 101%; remaining activity at 0.1 µM [23]: 101%; remaining activity at 0.1 µM [24]: 99.7%
